Key:
[1] = system: human foreskin microvascular endothelial cells; assay: Cell adhesion assay of human foreskin microvascular endothelial cells on protein-coated wells; type: cell-based
Method: The TRAIL and its variant protein are coated on a 96-well PVC plate overnight at 4° C. The coated 96-well plate was rinsed with 0.9% physiological saline, and then blocked for 1 h at 1640 culture medium containing 2% bovine serum albumin, and then rinsed again. After the human foreskin microvascular endothelial cells were digested, washed three times with phosphate buffer and re-suspended into the complete RPMI1640 medium, it was then added to the 96-well plate coated with TRAIL and its variant (40,000 cell per well). After the cells were incubated for 1.5 hours in an incubator containing 5% carbon dioxide, they were washed three times with physiological saline to remove the non-adherent cells. The adherent cells were fixed for 30 min with phosphate buffer solution (pH 7.3) containing 4% formalin and 2% sucrose, and then stained with 0.5% crystal violet. The fixed stained cells were rinsed several times, then dissolved with […] DMSO to test the absorbance values at 540 nm. All the tests should be carried out at least three times independently.

[2] = system: human foreskin microvascular endothelial cells; assay: Binding assay of fluorescein-labeled TRAIL and its variant with endothelial cells (flow cytometer); details: fluorescein-labeled protein, flow cytometry
Method: The TRAIL and its variant were labeled with fluorescein (Sigma company), and the labeled proteins were separated from free fluorescein through a Sephadex-G25 size exclusion column. After human foreskin microvascular endothelial cells were digested by trypsin, washed twice with ice-cold phosphate buffer containing 2% fetal calf serum, and then re-suspended, they were added with 1 μg of labeled protein for incubation for 1 h at 4° C. The fluorescent-labeled bovine serum albumin was used as a control of the test. After being washed three times, the binding capacity of the stained cells was analyzed with a flow cytometer (Becton Dickinson Company).

[3] = system: COLO-205 colon cancer cells; assay: Cell apoptosis, Annexin V and PI double staining, COLO-205; type: cell-based
Method: (§1) After the cells treated with TRAIL and its variant were digested with trypsin, they were removed from the cultivation plate, washed twice with phosphate buffer solution, and centrifuged for 5 min at 300 g centrifugal force. The supernatants were removed, and the cells were re-suspended in 100 ul of binding buffer solution. Then, Annexin V-FITC (BD Pharmgen) was added until a final concentration of 2 μg/ml was achieved, followed by incubation at room temperature. After 10 min, 400 ul of binding buffer was added, and the cells were transferred to a flow analysis tube. 1 μg of […] (Sigma Corporation) was added to each tube. The cells were analyzed with a flow cytometer within 30 min. At least three separate tests should be carried out for each cell line.

Jurkat T lymphoma cells = assay: Cell apoptosis, Annexin V and PI double staining, Jurkat; type: cell-based
Method: as §1

[4] = system: MDA-MB-231 breast cancer cells; assay: Cell apoptosis, Annexin V and PI double staining, MDA-MB-231; type: cell-based
Method: as §1

[5] = system: normal human foreskin microvascular endothelial cells; assay: Cell toxicity on normal endothelial cells; type: cell-based; details: 300 ng/ml, 24 hours
Method: (§2) Different from the tumor cells, the normal human foreskin microvascular endothelial cells, 293T kidney cells and primary liver cells were treated with 300 ng/ml of the TRAIL variants or TRAIL for 24 hours.

293T kidney cells = assay: Cell toxicity on 293T kidney cells; type: cell-based; details: 300 ng/ml, 24 hours
Method: as §2

primary liver cells = assay: Cell toxicity on primary liver cells; type: cell-based; details: 300 ng/ml, 24 hours
Method: as §2

[6] = system: COLO-205 colon cancer cells; assay: Anti-tumor efficacy on COLO-205 colon cancer model; type: in vivo, nude mice
Method: (§3) 5-6 week-old female nude mice were purchased from Shanghai Experimental Animal Center. The nude mice were injected through their tail veins with 100 μg of a specific antibody, i.e., purified Asialo GM-1 antibody (Wako Chemicals Inc., Japan) that blocks natural killer cells. After 24 hours, the upper right sides of the back of the nude mice were inoculated subcutaneously with 100,000 COLO-205 or HT-29 colon cancer cells. When the tumors reached 70 mm3, random grouping and treatment began. The recombinant TRAIL and its variant proteins were administered intraperitoneally, once daily for 10-14 days. The water-soluble camptothecin CPT-11 (11-hydroxy-camptothecin; Product Name: Irinotecan Hydrochloride Injection; Pharmacia/Upjohn Company's product) was administered intravenously once a week, two times in total. The recombinant proteins and camptothecin were diluted with a phosphate buffer. The tumor size was measured with a caliper, and the calculation formula was: […].
Two kinds of colon cancer models, COLO-205 and HT-29, were used to test the anti-tumor activity of the TRAIL variant in the athymic nude mice. Because COLO-205 colon cancer cells were sensitive to TRAIL, the therapeutic effect of separate use of TRAIL and TRAIL variant was assessed on this model. On the 8th day after the nude mice were inoculated with tumor cells, administration of drugs through the tail vein began for ten days in succession. The mice were divided into four groups; 100 μg TRAIL variant group, 20 μg TRAIL variant group, 100 μg wild-type TRAIL group, and PBS control group. […] Moreover, the TRAIL variant's inhibition of tumor growth was dose-dependent.
The invention also provides the anti-tumor effect of combined use of TRAIL variant and chemotherapeutic drug CPT-11. Protein injection was carried out by intraperitoneal injection once a day for TRAIL or TRAIL variant, for two weeks total, and intravenous injection once every two days from CPT-11 via tail veins, seven times in total. […] This effect was even better than the higher dose of the TRAIL+CPT-11 combined treatment group ([…]) (89%, P=0.001, 36 days).

HT-29 colon cancer cells = assay: Anti-tumor efficacy on HT-29 colon cancer model; type: in vivo, nude mice; details: TRAIL-insensitive HT-29 model
Method: as §3
The invention also provides the anti-tumor effect of combined use of TRAIL variant and chemotherapeutic drug CPT-11. Protein injection was carried out by intraperitoneal injection once a day for TRAIL or TRAIL variant, for two weeks total, and intravenous injection once every two days from CPT-11 via tail veins, seven times in total. […]

COLO-205 tumor tissues = assay: Drug distribution test of 125I-labeled recombinant proteins in tumor tissues; type: in vivo; details: COLO-205 tumor-bearing nude mice, 240 minutes after injection
Method: Separate injection from tail veins of 100 μl containing […] of 125I-labeled human TRAIL or its variant protein into the COLO-205 tumor bearing nude mice. 5, 30, 60, 120 and 240 minutes after injection, the tumor tissues were peeled off separately and weighed, and the radiation amount of the tumor tissues were measured with a liquid scintillation counter. The amount of radiation in the tumor tissues is represented by the percentage of measuring radiation quantity per gram of tissues and the injected radiation quantity (% ID/g). The results are the average value of three independent tests.
The recombinant TRAIL and the TRAIL variant protein were labeled with a radioisotope of iodine (^125I) using a labeling kit (Pierce Corp.). The labeling results were as follows: the specific activity of ^125I-TRAIL was 7.86 μCi/μg protein, and the specific activity of ^125I-TRAIL variant was 7.49 μCi/μg protein. After the nude mice were inoculated with COLO-205 colon cancer, and when the tumor size reached 400-500 mm3, they were randomly grouped into wild-type and variant group. Each group included five time points: 5 min, 30 min, 60 min, 120 min and 240 min, and each time point included three animals. […] At each time point, the mice were sacrificed, the tumors were dissected by surgery, and the radiation dose was measured through a liquid scintillation counter. […]

[7] = system: FADD−/− deficient Jurkat cells; assay: Apoptosis induction in FADD-/- deficient Jurkat cells
Source text: (§4) The fluorescence detection method was used to test the activity of Caspase-8 and Caspase-3 in the Jurkat cells after treatment of TRAIL and TRAIL variants.

[8] = system: Caspase-8−/− deficient Jurkat cells; assay: Apoptosis induction in Caspase-8-/- deficient Jurkat cells
Source text: as §4

Compound | reduction by free protein of endothelial cells adhered to microplates coated with RGD-L-TRAIL (competitive test) ([1]; free protein added to plates coated with TRAIL variant protein) | adhesion of human foreskin microvascular endothelial cells to culture plate wells coated with the protein ([1]; protein coated on 96-well plate, cells incubated 1.5 hours) | binding capacity with human foreskin microvascular endothelial cells [2] | medial lethal dose ([3]; COLO-205) | apoptosis rate ([3]; COLO-205 cells, 2.43 ng/ml) | medial lethal dose (Jurkat T lymphoma cells) | medial lethal dose [4] | cell toxicity [5] | cell toxicity (293T kidney cells) | cell toxicity (primary liver cells) | tumor inhibition rate ([6]; COLO-205, 90 μg/day/each combined with CPT-11 6.25 mg/kg/each, 36 days) | tumor inhibition rate ([6]; COLO-205, 100 μg, used alone, ten days in succession, 37th day, vs PBS control) | mice whose tumors disappeared, among ten animals ([6]; COLO-205, 270 μg/day/each + CPT-11 combined treatment) | tumor inhibition effect ([6]; COLO-205, 270 μg/day/each combined with CPT-11 6.25 mg/kg/each, 36 days) | dose required for the same therapeutic effect, relative to TRAIL variant ([6]; COLO-205 models, combined treatment program with CPT-11) | dose required, relative to TRAIL variant (HT-29 colon cancer cells) | distribution in the tumor tissues (COLO-205 tumor tissues) | induction of cell apoptosis [7] | induction of cell apoptosis [8] | tumor growth inhibition (in words) ([6]; COLO-205, individual injection of low dose CPT-11 (6.25 mg/kg/each), vs PBS control)
TRAIL: recombinant wild-type human tumor necrosis factor-related apoptosis-inducing ligand, comparator | has no such ability | do not adhere | very weak | 3.5 ng/mL | 43.7% | 6.7 ng/mL | 2.3 ng/mL | No obvious cell toxicity | No obvious cell toxicity | No obvious cell toxicity | 67.8% | 37% | 6 mice | 89% | 3-9 times | at least 2 times | difficult to detect | no induced cell apoptosis | no induced cell apoptosis | 
CCc1c2c(nc3ccc(OC(=O)N4CCC(N5CCCCC5)CC4)cc13)-c1cc3c(c(=O)n1C2)COC(=O)[C@]3(O)CC [CPT-11, reference compound] |  |  |  |  |  |  |  |  |  |  |  |  |  |  |  |  |  |  |  | slightly inhibit the tumor growth
